Each structure is given as a SMILES string. Counter-ions that a name gives are not always drawn.

For this experiment, the target named is T1, human glycine transporter type 1 (Gly-T1) (Homo sapiens, UniProt P48067).
T1 construct: JAR) cells endogenously expressing human glycine transporter type 1 (Gly-T1); endogenous in cells; host or cells: JAR (human placental choriocarcinoma) cells
T1 sequence (P48067 1-706): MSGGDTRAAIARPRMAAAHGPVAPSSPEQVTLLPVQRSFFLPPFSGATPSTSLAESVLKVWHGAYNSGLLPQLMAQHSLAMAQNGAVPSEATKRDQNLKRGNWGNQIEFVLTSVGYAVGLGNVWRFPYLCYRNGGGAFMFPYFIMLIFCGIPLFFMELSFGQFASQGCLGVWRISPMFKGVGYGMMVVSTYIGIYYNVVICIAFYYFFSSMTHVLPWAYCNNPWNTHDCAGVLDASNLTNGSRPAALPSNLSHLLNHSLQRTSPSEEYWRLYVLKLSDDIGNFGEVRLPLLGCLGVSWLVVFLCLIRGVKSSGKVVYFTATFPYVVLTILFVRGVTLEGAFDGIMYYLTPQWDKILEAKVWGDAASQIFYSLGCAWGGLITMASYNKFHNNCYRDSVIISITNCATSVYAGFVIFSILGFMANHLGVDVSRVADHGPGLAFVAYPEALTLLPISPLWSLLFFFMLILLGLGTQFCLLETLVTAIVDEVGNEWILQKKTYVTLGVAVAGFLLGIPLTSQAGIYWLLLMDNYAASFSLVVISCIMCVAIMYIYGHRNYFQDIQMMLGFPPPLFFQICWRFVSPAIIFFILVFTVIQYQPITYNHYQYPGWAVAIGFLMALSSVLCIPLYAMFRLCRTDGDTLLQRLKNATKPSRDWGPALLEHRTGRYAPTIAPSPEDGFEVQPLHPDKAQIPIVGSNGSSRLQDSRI
The experiment in a line: Glycine Transporter 1 (GlyT1) uptake assay, [14C] glycine uptake in JAR cells. The experiment is classed as cell-based. The note with it: approximate IC50; inhibition of [14C] glycine (5 μM) uptake, JAR cells endogenously expressing human Gly-T1. The protocol: This cell-based assay measures the ability of test compounds to inhibit the uptake of glycine by the glycine transporter type 1. Human placental choriocarcinoma (JAR) cells endogenously expressing human glycine transporter type 1 (Gly-T1) were used for this assay. […] Cells were plated at a density of 4×10^4 cells/well and grown at 37° C. in a humidified atmosphere of 5% CO2 for 24 h.
Culture medium was removed from Cytostar plate and JAR cells were incubated with 30 μl of Uptake buffer (120 mM NaCl, 2 mM KCl, 1 mM CaCl2, 1 mM MgCl2, 10 mM Hepes, 5 mM alanine, pH 7.5) with or without compound for 5 min. […] After incubation at room temperature for the desired time usually 1-2 h, sealed 96-well Cytostar plates were counted on a TopCount (Packard).
IC50 curves were generated from the raw data collected from the TopCount and fitted with a four-parameter logistic equation using in-house data analysis tool, Activity Base.
On to `O=C(O)CN1CCN([C@H](c2ccccc2)c2cccc(C(F)(F)F)c2)CC1` [Cpd 1, (R)-2-(4-(phenyl(3-(trifluoromethyl)phenyl)methyl)piperazin-1-yl)acetic acid], for which the half-inhibitory concentration (IC50) was 79.1 nM. The value for `C[C@@H]1CN([C@H](c2ccccc2)c2cccc(Br)c2)CCN1CC(=O)O` [Cpd 20, 2-((R)-4-((R)-(3-bromophenyl)(phenyl)methyl)-2-methylpiperazin-1-yl)acetic acid dihydrochloride salt] was 1.51 nM; that for `C[C@@H]1CN([C@H](c2ccccc2)c2cccc(C(F)(F)F)c2)CCN1CC(=O)O` [Cpd 24, 2-((R)-2-methyl-4-((R)-phenyl(3-(trifluoromethyl)phenyl)methyl)piperazin-1-yl)acetic acid dihydrochloride salt] was 3.94 nM; that for `C[C@@H]1CN([C@H](c2ccccc2)c2cccc(-c3ccccc3)c2)CCN1CC(=O)O` [Cpd 30, [(R)-4-((R)-biphenyl-3-yl-phenyl-methyl)-2-methyl-piperazin-1-yl]-acetic acid] was 0.934 nM.

The compound `Cc1cccc([C@@H](c2ccccc2)N2CCN(CC(=O)O)[C@H](C)C2)c1` [Cpd 34, 2-((R)-2-methyl-4-((R)-phenyl(m-tolyl)methyl)piperazin-1-yl)acetic acid] yielded an IC50 of 17.8 nM. For `Cc1cccc(-c2ccc([C@@H](c3ccccc3)N3CCN(CC(=O)O)[C@H](C)C3)cc2)c1` [Cpd 48, [(R)-2-methyl-4-[(R)-(3′-methyl-biphenyl-4-yl)-phenyl-methyl]-piperazin-1-yl]-acetic acid], the midpoint of inhibition, the IC50, lay at 2.14 nM. The result for `Cc1ccc(-c2ccc([C@@H](c3ccccc3)N3CCN(CC(=O)O)[C@H](C)C3)cc2)cc1` [Cpd 49, [(R)-2-methyl-4-[(R)-(4′-methyl-biphenyl-4-yl)-phenyl-methyl]-piperazin-1-yl]-acetic acid] reads 7.2 nM.

Compound `C[C@@H]1CN([C@H](c2ccccc2)c2ccc(C#Cc3ccccc3)cc2)CCN1CC(=O)O` [Cpd 55A, 2-((R)-2-methyl-4-((R)-phenyl(4-(2-phenylethynyl)phenyl)methyl)piperazin-1-yl)acetic acid] came in with an IC50 of 1.5 nM. On to `C[C@@H]1CN(C(c2cccc(C(F)(F)F)c2)C2CC2)CCN1CC(=O)O` (stereo partly drawn) [Cpd 77, 2-((R)-4-(cyclopropyl(3-(trifluoromethyl)phenyl)methyl)-2-methylpiperazin-1-yl)acetic acid dihydrochloride salt], for which the 50% inhibitory concentration (IC50) was 41.1 nM. Against the preceding compound, the IC50 is about 27-fold higher. In turn, `C[C@@H]1CN(C(c2ccc(Cl)cc2)c2ccc(Cl)cc2)CCN1CC(=O)O` [Cpd 78, (R)-2-(4-(bis(4-chlorophenyl)methyl)-2-methylpiperazin-1-yl)acetic acid] came in with a half-inhibitory concentration (IC50) of 4.8 nM. This IC50 is about 8.6-fold lower than that of the compound before. The result for `C[C@@H]1CN(C(c2ccc(Cl)cc2)c2ccc(Cl)cc2)CCN1[C@H](C)C(=O)O` [Cpd 82, (R)-2-((R)-4-(bis(4-chlorophenyl)methyl)-2-methylpiperazin-1-yl)propanoic acid] reads 2200 nM.

The record behind these values is patent US9663476B2, “Glycine transporter-1 inhibitors” (AMGEN INC., priority 2006, dated 2017).
